Source: patent publication US12187713B2, “Immunomodulators, compositions and methods thereof” (Betta Pharmaceuticals Co., Ltd, priority 2019, dated 2025)
pIC50: −log10 of the molar value.

biological target: PD-1/PD-L1 (Homo sapiens (Human), UniProt Q9NZQ7); assay: PD-1/PD-L1 Binding Assay (Alphascreen); details: numeric values
Protocol: PD-1/PD-L1 Binding Assay (Alphascreen)
The assays were conducted in a standard black 384-well polystyrene plate with a final volume of 20 μL. Inhibitors were first serially diluted in DMSO and then added to the plate wells before the addition of other reaction components. The final concentration of DMSO in the assay was […]. Add 100 nL/well of compound to the 384 reaction plate (6008280, PerkinElmer) with Echo and centrifuge at 1000 rpm for 1 minute. Add 5 μL/well 4×PD-L1 solutions to the 384 reaction plate, centrifuge at 1000 rpm for 1 minute, and add 5 μL/well 4×PD-1 solutions, centrifuge at 1000 rpm for 1 minute, and incubate at 25° C. for 15 minutes. The concentrations of the compounds were 300, 100, 33.33, 11.11, 3.70, 1.23, 0.41, 0.137, 0.046, 0.015, 0 nM, respectively. Add 10 μL/well 2× Anti-6×His AlphaLISA Acceptor beads and Streptavidin Donor beads solution (PerkinElmer-AL356F) to the above 384 reaction plate, centrifuge at 1000 rpm for 1 minute, and incubate at 25° C. in the dark for 120 minutes. Read the AlphaLISA signal value using the Envision Reader. IC50 determination was performed by fitting the curve of percent control activity versus the log of the inhibitor concentration using the GraphPad Prism 8.0 software.

Chain of PD-1/PD-L1 (Q9NZQ7 19-238): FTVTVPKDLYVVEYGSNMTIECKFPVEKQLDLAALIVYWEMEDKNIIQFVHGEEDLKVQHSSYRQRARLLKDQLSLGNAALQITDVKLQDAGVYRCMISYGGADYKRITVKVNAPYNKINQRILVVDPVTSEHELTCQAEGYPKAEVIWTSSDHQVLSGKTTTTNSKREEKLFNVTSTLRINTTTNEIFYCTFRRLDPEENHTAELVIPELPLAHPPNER

SMILES	pIC50
Cc1c(-c2nc3cc(CN4CC(O)C4)c(OC(F)F)cc3o2)cccc1-c1cccc(-c2nc3cc(CN4CCC[C@H]4C(=O)O)c(OC(F)F)cc3o2)c1C [Example 20, ((6-(difluoromethoxy)-2-(3′-(6-(difluoromethoxy)-5-((3-hydroxyazetidin-1-yl)methyl)benzo [d]oxazol-2-yl)-2,2′-dimethyl-[1,1′-biphenyl]-3-yl)benzo[d]oxazol-5-yl)methyl)-L-proline]	8.80
CCNCc1cc2nc(-c3cccc(-c4cccc(-c5nc6cc(CN7CCC[C@H]7C(=O)O)c(OC(F)F)cc6o5)c4C)c3C)oc2cc1OC(F)F [Example 21, ((6-(difluoromethoxy)-2-(3′-(6-(difluoromethoxy)-5-((ethylamino)methyl)benzo[d]oxazol-2-yl)-2,2′-dimethyl-[1,1′-biphenyl]-3-yl)benzo[d]oxazol-5-yl)methyl)-L-proline]	9.23
Cc1c(-c2nc3cc(CN)c(OC(F)F)cc3o2)cccc1-c1cccc(-c2nc3cc(CN4CCC[C@H]4C(=O)O)c(OC(F)F)cc3o2)c1C [Example 24, ((2-(3′-(5-(aminomethyl)-6-(difluoromethoxy)benzo[d]oxazol-2-yl)-2,2′-dimethyl-[1,1′-biphenyl]-3-yl)-6-(difluoromethoxy)benzo[d]oxazol-5-yl)methyl)-L-proline]	9.01
Cc1c(-c2nc3cc(CN[C@@H]4CCC[C@@H]4O)c(OC(F)F)cc3o2)cccc1-c1cccc(-c2nc3cc(CN4CCC[C@H]4C(=O)O)c(OC(F)F)cc3o2)c1C [Example 25, ((6-(difluoromethoxy)-2-(3′-(6-(difluoromethoxy)-5-((((1R,2S)-2-hydroxycyclopentyl)amino)methyl)benzo[d]oxazol-2-yl)-2,2′-dimethyl-[1,1′-biphenyl]-3-yl)benzo[d]oxazol-5-yl)methyl)-L-proline]	9.52
Cc1c(-c2nc3cc(CN[C@H]4CCC[C@H]4O)c(OC(F)F)cc3o2)cccc1-c1cccc(-c2nc3cc(CN4CCC[C@H]4C(=O)O)c(OC(F)F)cc3o2)c1C [Example 27, ((6-(difluoromethoxy)-2-(3′-(6-(difluoromethoxy)-5-((((1S,2R)-2-hydroxycyclopentyl)amino)methyl)benzo[d]oxazol-2-yl)-2,2′-dimethyl-[1,1′-biphenyl]-3-yl)benzo[d]oxazol-5-yl)methyl)-L-proline]	9.18
Cc1c(-c2nc3cc(CNCCS(C)(=O)=O)c(OC(F)F)cc3o2)cccc1-c1cccc(-c2nc3cc(CN4CCC[C@H]4C(=O)O)c(OC(F)F)cc3o2)c1C [Example 32, ((6-(difluoromethoxy)-2-(3′-(6-(difluoromethoxy)-5-(((2-(methylsulfonyl)ethyl)amino)methyl)benzo[d]oxazol-2-yl)-2,2′-dimethyl-[1,1′-biphenyl]-3-yl)benzo[d]oxazol-5-yl)methyl)-L-proline]	8.42
Cc1c(-c2nc3cc(CN4CC[C@@H]4CO)c(OC(F)F)cc3o2)cccc1-c1cccc(-c2nc3cc(CN4CCC[C@H]4C(=O)O)c(OC(F)F)cc3o2)c1C [Example 35, ((6-(difluoromethoxy)-2-(3′-(6-(difluoromethoxy)-5-(((R)-2-(hydroxymethyl)azetidin-1-yl)methyl)benzo[d]oxazol-2-yl)-2,2′-dimethyl-[1,1′-biphenyl]-3-yl)benzo[d]oxazol-5-yl)methyl)-L-proline]	9.04
Cc1c(-c2nc3cc(CN4CCC[C@H]4C(=O)O)c(OC(F)F)cc3o2)cccc1-c1cccc(-c2nc3cc(CN4CCC45COC5)c(OC(F)F)cc3o2)c1C [Example 39, ((2-(3′-(5-((6-oxa-1-azaspiro[3.3]heptan-1-yl)methyl)-6-(difluoromethoxy)benzo[d]oxazol-2-yl)-2,2′-dimethyl-[1,1′-biphenyl]-3-yl)-6-(difluoromethoxy)benzo[d]oxazol-5-yl)methyl)-L-proline]	8.62
Cc1c(-c2nc3cc(CN4CC(C)(O)C4)c(OC(F)F)cc3o2)cccc1-c1cccc(-c2nc3cc(CN4CCC[C@H]4C(=O)O)c(OC(F)F)cc3o2)c1C [Example 44, ((6-(difluoromethoxy)-2-(3′-(6-(difluoromethoxy)-5-((3-hydroxy-3-methylazetidin-1-yl)methyl)benzo[d]oxazol-2-yl)-2,2′-dimethyl-[1,1′-biphenyl]-3-yl)benzo[d]oxazol-5-yl)methyl)-L-proline]	8.96

same assay, conditions: range symbols

SMILES	pIC50
Cc1c(-c2nc3cc(CN(C)[C@@H]4CCC[C@@H]4O)c(OC(F)F)cc3o2)cccc1-c1cccc(-c2nc3cc(CN4CCC[C@@H]4C(=O)O)c(OC(F)F)cc3o2)c1C [Example 26, ((6-(difluoromethoxy)-2-(3′-(6-(difluoromethoxy)-5-((((1R,2S)-2-hydroxycyclopentyl) (methyl)amino)methyl)benzo[d]oxazol-2-yl)-2,2′-dimethyl-[1,1′-biphenyl]-3-yl)benzo[d]oxazol-5-yl)methyl)-D-proline]	8.30 to 10.00
Cc1c(-c2nc3cc(CN(C)C[C@H]4CCCO4)c(OC(F)F)cc3o2)cccc1-c1cccc(-c2nc3cc(CN4CCC[C@H]4C(=O)O)c(OC(F)F)cc3o2)c1C [Example 30, ((6-(difluoromethoxy)-2-(3′-(6-(difluoromethoxy)-5-((methyl(((R)-tetrahydrofuran-2-yl)methyl)amino)methyl)benzo[d]oxazol-2-yl)-2,2′-dimethyl-[1,1′-biphenyl]-3-yl)benzo[d]oxazol-5-yl)methyl)-L-proline]	8.30 to 10.00
Cc1c(-c2nc3cc(CN4CCC[C@H]4C(=O)O)c(OC(F)F)cc3o2)cccc1-c1cccc(-c2nc3cc(CN4CCC4(C)O)c(OC(F)F)cc3o2)c1C (stereo partly drawn) [Example 37, ((6-(difluoromethoxy)-2-(3′-(6-(difluoromethoxy)-5-((2-hydroxy-2-methylazetidin-1-yl)methyl)benzo[d]oxazol-2-yl)-2,2′-dimethyl-[1,1′-biphenyl]-3-yl)benzo[d]oxazol-5-yl)methyl)-L-proline]	8.30 to 10.00
Cc1c(-c2nc3cc(CN4CCCC4C)c(OC(F)F)cc3o2)cccc1-c1cccc(-c2nc3cc(CN4CCC[C@H]4C(=O)O)c(OC(F)F)cc3o2)c1C (stereo partly drawn) [Example 38, ((6-(difluoromethoxy)-2-(3′-(6-(difluoromethoxy)-5-((2-methylpyrrolidin-1-yl)methyl)benzo[d]oxazol-2-yl)-2,2′-dimethyl-[1,1′-biphenyl]-3-yl)benzo[d]oxazol-5-yl)methyl)-L-proline]	8.30 to 10.00
Cc1c(-c2nc3cc(CN4CCC[C@H]4C(=O)O)c(OC(F)F)cc3o2)cccc1-c1cccc(-c2nc3cc(CN4CCC4(C)N)c(OC(F)F)cc3o2)c1C (stereo partly drawn) [Example 40, ((2-(3′-(5-((2-amino-2-methylazetidin-1-yl)methyl)-6-(difluoromethoxy)benzo[d]oxazol-2-yl)-2,2′-dimethyl-[1,1′-biphenyl]-3-yl)-6-(difluoromethoxy)benzo[d]oxazol-5-yl)methyl)-L-proline]	8.30 to 10.00
Cc1c(-c2nc3cc(CN4CC(S(C)(=O)=O)C4)c(OC(F)F)cc3o2)cccc1-c1cccc(-c2nc3cc(CN4CCC[C@H]4C(=O)O)c(OC(F)F)cc3o2)c1C [Example 41, ((6-(difluoromethoxy)-2-(3′-(6-(difluoromethoxy)-5-((3-(methylsulfonyl)azetidin-1-yl)methyl)benzo[d]oxazol-2-yl)-2,2′-dimethyl-[1,1′-biphenyl]-3-yl)benzo[d]oxazol-5-yl)methyl)-L-proline]	7.30 to 8.30
CC[C@@H]1CCN1Cc1cc2nc(-c3cccc(-c4cccc(-c5nc6cc(CN7CCC[C@H]7C(=O)O)c(OC(F)F)cc6o5)c4C)c3C)oc2cc1OC(F)F [Example 42, ((6-(difluoromethoxy)-2-(3′-(6-(difluoromethoxy)-5-(((R)-2-ethylazetidin-1-yl)methyl)benzo[d]oxazol-2-yl)-2,2′-dimethyl-[1,1′-biphenyl]-3-yl)benzo[d]oxazol-5-yl)methyl)-L-proline]	8.30 to 10.00
COC1CN(Cc2cc3nc(-c4cccc(-c5cccc(-c6nc7cc(CN8CCC[C@H]8C(=O)O)c(OC(F)F)cc7o6)c5C)c4C)oc3cc2OC(F)F)C1 [Example 43, ((6-(difluoromethoxy)-2-(3′-(6-(difluoromethoxy)-5-((3-methoxyazetidin-1-yl)methyl)benzo[d]oxazol-2-yl)-2,2′-dimethyl-[1,1′-biphenyl]-3-yl)benzo[d]oxazol-5-yl)methyl)-L-proline]	7.30 to 8.30
CNCC1CN(Cc2cc3nc(-c4cccc(-c5cccc(-c6nc7cc(CN8CCC[C@H]8C(=O)O)c(OC(F)F)cc7o6)c5C)c4C)oc3cc2OC(F)F)C1 [Example 45, ((6-(difluoromethoxy)-2-(3′-(6-(difluoromethoxy)-5-((3-((methylamino)methyl)azetidin-1-yl)methyl)benzo[d]oxazol-2-yl)-2,2′-dimethyl-[1,1′-biphenyl]-3-yl)benzo[d]oxazol-5-yl)methyl)-L-proline]	8.30 to 10.00
Cc1c(-c2nc3cc(CN4CC(=O)C4)c(OC(F)F)cc3o2)cccc1-c1cccc(-c2nc3cc(CN4CCC[C@H]4C(=O)O)c(OC(F)F)cc3o2)c1C [Example 46, ((6-(difluoromethoxy)-2-(3′-(6-(difluoromethoxy)-5-((3-oxoazetidin-1-yl)methyl)benzo[d]oxazol-2-yl)-2,2′-dimethyl-[1,1′-biphenyl]-3-yl)benzo[d]oxazol-5-yl)methyl)-L-proline]	7.30 to 8.30
